This is an account of results in patent publication US11149267B2, “Functional genomics using CRISPR-Cas systems, compositions, methods, screens and applications thereof” (The Broad Institute, Inc., priority 2013, dated 2021).

Data set [1] is described as follows: Dosing of screening agents, CellTiter-Glo cell viability assay. The data set is classed as cell-based. The settings on record: human, WT KBM7 cells. The procedure: (§1) Dosing of screening agents: To determine the appropriate dose of 6-TG and etoposide for screening in KBM7 and HL60 cells, cells were seeded in 96-well tissue culture plates at 4000 cells/well in 200 μL of media and were treated in triplicate with varying concentrations of 6-TG and etoposide. A CellTiter-Glo cell viability assay was performed after 4 days to assess drug toxicity. Concentrations at which the viability of WT KBM7 and HL60 cells fell below 5% were chosen.
Pooled screening: In all screens, 90 million target cells were transduced with viral sub pools and selected with blasticidin 24 hours after infection for 3 days. For the 6-TG screen, Cas9-KBM7 cells were cultured in media containing 400 nM 6-TG. For screens with etoposide, Cas9-KBM7 and Cas9-HL60 cells were cultured in media containing 130 nM and 200 nM of etoposide, respectively. Cultures of untreated Cas9-KBM7 and Cas9-HL60 cells were also maintained in parallel. All cells were passaged every 3 days, and after 12 days, cells were harvested for genomic DNA extraction. In negative selection screens, 10 million cells were harvested for genomic DNA extraction 24 hours after infection. The remaining cells were maintained for 12 doublings, before being harvested for genomic DNA extraction.

Data set [2] relates to HL60 cells. Kind of data set: CellTiter-Glo cell viability assay in HL60 cells. The data set is classed as cell-based, human. The settings on record: versus parental or sgAAVS1-modified HL60 cells; viability by cellular ATP. The procedure:
(§2) Viability assay: Cells were seeded in 96-well tissue culture plates at 4000 cells/well in 200 μL of media under various treatment conditions. After 3 days, 35 μL of CellTiter-Glo reagent (Promega) was added to each well, mixed for 5 minutes, and the luminescence was read on the SpectraMax M5 Luminometer (Molecular Devices). All experiments were performed in triplicate.
as §1
(§3) Pooled screening: In all screens, 90 million target cells were transduced with viral sub pools and selected with blasticidin 24 hours after infection for 3 days. For the 6-TG screen, Cas9-KBM7 cells were cultured in media containing 400 nM 6-TG. For screens with etoposide, Cas9-KBM7 and Cas9-HL60 cells were cultured in media containing 130 nM and 200 nM of etoposide, respectively. Cultures of untreated Cas9-KBM7 and Cas9-HL60 cells were also maintained in parallel. […]

Data set [3] can be described thus: CellTiter-Glo cell viability assay in HL60 cells. The settings on record: human, WT HL60 cells; at the concentration chosen for screening (200 nM etoposide); 4 days. The data set is classed as cell-based, human. Here is the method: as §2, §1, §3

`Nc1nc2nc[nH]c2c(=S)[nH]1` [6-TG, 6-thioguanine] registered a viability at 4 days, 400 nM in data set [1] (at the concentration chosen for screening (400 nM 6-TG)) of under 5%.
Turning to `COc1cc([C@@H]2c3cc4c(cc3[C@@H](O[C@@H]3O[C@@H]5CO[C@@H](C)O[C@H]5[C@H](O)[C@H]3O)[C@H]3COC(=O)[C@H]23)OCO4)cc(OC)c1O` [etoposide], in data set [2], the “resistance to etoposide of isogenic HL60 lines with sgRNAs against TOP2A and CDK6” value is listed as “much more resistant”. Also, in data set [3], the viability at 4 days, 200 nM was under 5%. The compound also came in with a viability at 4 days, 130 nM in data set [1] (at the concentration chosen for screening (130 nM etoposide)) of under 5%.
